Experimental data taken from patent publication US20240116985A1, “STAPLED PEPTIDES AND METHODS THEREOF” (priority 2020, published 2024).
Converted amounts (≈) assume the structure as drawn. Like-named read-outs stand apart in the source and are kept apart here.

How the values were obtained:
[1] = target: T1, full-length beta-Catenin (Uniprot ID P35222) (Homo sapiens, UniProt P35222); assay: Fluorescence polarization IC50 (beta-catenin / 5FAM-TCF4 10-53 competition); type: binding
T1 construct: 10 nM full-length beta-Catenin (Uniprot ID P35222)
T1 sequence (P35222 1-781): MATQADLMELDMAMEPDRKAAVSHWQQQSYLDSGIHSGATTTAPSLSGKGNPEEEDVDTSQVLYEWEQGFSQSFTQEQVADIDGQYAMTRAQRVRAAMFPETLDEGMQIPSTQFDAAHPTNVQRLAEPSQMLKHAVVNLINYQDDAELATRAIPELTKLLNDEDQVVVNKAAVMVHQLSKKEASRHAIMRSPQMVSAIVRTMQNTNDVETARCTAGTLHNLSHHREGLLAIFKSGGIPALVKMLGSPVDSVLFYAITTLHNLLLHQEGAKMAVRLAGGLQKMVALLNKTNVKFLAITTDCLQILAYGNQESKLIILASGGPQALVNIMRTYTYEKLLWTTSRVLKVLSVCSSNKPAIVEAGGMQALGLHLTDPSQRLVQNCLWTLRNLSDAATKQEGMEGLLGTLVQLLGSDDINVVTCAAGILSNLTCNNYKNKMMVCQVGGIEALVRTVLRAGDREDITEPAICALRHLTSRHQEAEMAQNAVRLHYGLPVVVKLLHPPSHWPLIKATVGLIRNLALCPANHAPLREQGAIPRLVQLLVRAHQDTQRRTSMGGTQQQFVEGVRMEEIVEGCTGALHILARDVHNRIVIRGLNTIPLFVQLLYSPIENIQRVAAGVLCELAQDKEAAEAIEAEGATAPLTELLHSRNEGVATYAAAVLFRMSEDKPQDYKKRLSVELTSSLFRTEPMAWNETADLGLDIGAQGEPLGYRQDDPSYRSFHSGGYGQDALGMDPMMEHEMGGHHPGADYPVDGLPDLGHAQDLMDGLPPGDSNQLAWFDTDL

CHI Log D procedure = type: physicochemical; conditions: for CHI Log D: pH 7.4; for chromatographic logD: pH 7.4, CHI Log D
Solubility in PBS = type: physicochemical
Method in brief: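 Steps: ultracentrifuge the peptide PBS solution, inject the supernatant on HPLC, inject a 50 μM peptide DMSO solution as reference, then calculate solubility as area ratio (PBS/DMSO) × 50 uM.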

[2] = fluorescence polarization, read-out: beta-Catenin FP IC50
[3] = fluorescence polarization, beta-catenin, read-out: FP EC50

IC50 [1, 2] | IC50 ([1]; read-out: FP EC50) | CHI Log D (CHI Log D procedure) | Solubility (Solubility in PBS) | chromatographic logD (CHI Log D procedure) | Solubility (Solubility in PBS; Solubility (uM)) | IC50 ([1]; read-out: beta-Catenin FP IC50) | IC50 [1, 3] | SMILES
38.5 nM | 38.5 nM | 1.985 | 50 µM (≈ 92.4 µg/mL) | – | – | – | – | CC(=O)N1CCC[C@]12CC=CCCCC1(CCCC=CCCCCCC[C@@](C)(C(=O)N[C@@H](Cc3ccsc3)C(=O)N[C@@H](Cc3csc4ccccc34)C(=O)N[C@@H](CCC(N)=O)C(N)=O)NC(=O)[C@H](CCC(N)=O)NC(=O)[C@H](Cc3ccccc3)NC(=O)[C@H](C)NC(=O)[C@H](C)NC(=O)[C@H](CCC(=O)O)NC(=O)[C@H](CC(=O)O)NC1=O)NC(=O)[C@H](C)NC(=O)[C@H](CC(=O)O)NC2=O (stereo partly drawn) [I-427, Ac-PL3-Asp-Ala-B5-Asp-Glu-Ala-Ala-Phe-Gln-S8-3Thi-BztA-Gln-NH2]
84 nM | – | – | – | 2.09 | 33 µM (≈ 62.4 µg/mL) | – | – | CC(=O)N1CCC[C@]12CC=CCCCC1(CCCC=CCCCCCC[C@@](C)(C(=O)N[C@@H](Cc3ccccc3)C(=O)N[C@@H](Cc3csc4ccccc34)C(=O)N[C@@H](CCC(N)=O)C(N)=O)NC(=O)[C@H](CCC(N)=O)NC(=O)[C@H](Cc3ccccc3)NC(=O)[C@H](C)NC(=O)[C@H](C)NC(=O)[C@H](CCC(=O)O)NC(=O)[C@H](CC(=O)O)NC1=O)NC(=O)[C@H](CC(F)F)NC(=O)[C@H](CC(=O)O)NC2=O (stereo partly drawn) [I-503, Ac-PL3-Asp-HF2CA-B5-Asp-Glu-Ala-Ala-Phe-Gln-S8-Phe-BztA-Gln-NH2]
253 nM | 253 nM | 2.549 | 10 µM (≈ 18.7 µg/mL) | – | – | – | – | CC(=O)N1CCC[C@]12CC=CCCCC1(CCCC=CCCCCCC[C@@](C)(C(=O)N[C@@H](Cc3ccccc3)C(=O)N[C@@H](Cc3csc4ccccc34)C(=O)N[C@@H](Cc3c[nH]cn3)C(N)=O)NC(=O)[C@H]([C@@H](C)O)NC(=O)[C@H](Cc3ccccc3)NC(=O)[C@H](C)NC(=O)[C@H](C)NC(=O)[C@H](CCC(=O)O)NC(=O)[C@H](CC(=O)O)NC1=O)NC(=O)[C@H](CC(C)C)NC(=O)[C@H](CC(=O)O)NC2=O (stereo partly drawn) [I-617, Ac-PL3-Asp-Leu-B5-Asp-Glu-Ala-Ala-Phe-Thr-S8-Phe-BztA-His-NH2]
– | – | – | – | 2.33 | 29 µM (≈ 57.4 µg/mL) | 39 nM | – | CC(=O)N1CCC[C@]12CC=CCCCC1(CCCC=CCCCOC(=O)N3CC[C@@](C(=O)N[C@@H](Cc4ccccc4)C(=O)N[C@@H](Cc4csc5ccccc45)C(=O)N[C@@H](CCC(N)=O)C(N)=O)(C3)NC(=O)[C@H](CC(C)C)NC(=O)[C@H](Cc3ccc(C(F)(F)F)cc3)NC(=O)[C@H](C)NC(=O)[C@H](C)NC(=O)[C@H](CC(=O)O)NC(=O)[C@H](CC(=O)O)NC1=O)NC(=O)[C@H](CC(C)(C)C)NC(=O)[C@H](CC(=O)O)NC2=O (stereo partly drawn) [I-1129, Ac-PL3-Asp-Npg-B5-Asp-Asp-Ala-Ala-4F3MeF-Leu-PyrS2-Phe-BztA-Gln-NH2]
– | – | 1.919 | 10 µM (≈ 19.9 µg/mL) | – | – | 118 nM | 118 nM | CC(=O)N1CCC[C@]12CC=CCCCC1(CCCC=CCCCOC(=O)N3CC[C@@](C(=O)N[C@@H](Cc4ccsc4)C(=O)N[C@@H](Cc4csc5ccccc45)C(=O)N[C@@H](CO)C(N)=O)(C3)NC(=O)[C@H](Cc3ccccc3)NC(=O)[C@H](Cc3ccccc3)NC(=O)[C@H](C)NC(=O)[C@H](C)NC(=O)[C@H](Cc3cccc(C(=O)O)c3)NC(=O)[C@H](CC(=O)O)NC1=O)NC(=O)[C@H](CC(C)(C)C)NC(=O)[C@H](CC(=O)O)NC2=O (stereo partly drawn) [I-983, Ac-PL3-Asp-Npg-B5-Asp-3COOHF-Ala-Ala-Phe-Phe-PyrS2-3Thi-BztA-Ser-NH2]
73 nM | 73 nM | 2.736 | 40 µM (≈ 77 µg/mL) | – | – | – | – | CCCC[C@@H]1NC(=O)[C@H](CCC(=O)O)NC(=O)[C@H](CC(=O)O)NC(=O)C2(CCCC=CCCCCCC[C@@](C)(C(=O)N[C@@H](Cc3ccccc3)C(=O)N[C@@H](Cc3csc4ccccc34)C(=O)N[C@@H](CCC(N)=O)C(N)=O)NC(=O)[C@H](CCC(N)=O)NC(=O)[C@H](Cc3ccccc3)NC(=O)[C@H](C)NC1=O)CCCC=CC[C@]1(CCCN1C(C)=O)C(=O)N[C@@H](CC(=O)O)C(=O)N[C@@H]([C@@H](C)CC)C(=O)N2 (stereo partly drawn) [I-656, Ac-PL3-Asp-Ile-B5-Asp-Glu-nLeu-Ala-Phe-Gln-S8-Phe-BztA-Gln-NH2]
– | – | – | – | 1.82 | 46 µM (≈ 112 µg/mL) | 16 nM | – | COCCOCCOCCOCCOCCOCCOCCOCCC(=O)NCCCC[C@H](NC(=O)[C@H](CCC(N)=O)NC(=O)[C@H](Cc1csc2ccccc12)NC(=O)[C@H](Cc1ccsc1)NC(=O)[C@]12CCN(C1)C(=O)OCCCC=CCCCC1(CCCC=CC[C@]3(CCCN3C(C)=O)C(=O)N[C@@H](CC(=O)O)C(=O)N[C@@H](CC(C)(C)C)C(=O)N1)C(=O)N[C@@H](CC(=O)O)C(=O)N[C@@H](CC(=O)O)C(=O)N[C@@H](C)C(=O)N[C@@H](C)C(=O)N[C@@H](Cc1ccccc1)C(=O)N[C@@H](CC(N)=O)C(=O)N2)C(N)=O (stereo partly drawn) [I-914, Ac-PL3-Asp-Npg-B5-Asp-Asp-Ala-Ala-Phe-Asn-PyrS2-3Thi-BztA-Gln-[mPEG8]Lys-NH2]
– | – | – | – | 1.9 | 47 µM (≈ 90.5 µg/mL) | 33 nM | – | CC(=O)N1CCC[C@]12CC=CCCCC1(CCCC=CCCCOC(=O)N3CC[C@@](C(=O)N[C@@H](Cc4ccsc4)C(=O)N[C@@H](Cc4csc5ccccc45)C(=O)N[C@@H](CCC(N)=O)C(N)=O)(C3)NC(=O)[C@H](CC(N)=O)NC(=O)[C@H](Cc3cscn3)NC(=O)[C@H](C)NC(=O)[C@H](C)NC(=O)[C@H](CC(=O)O)NC(=O)[C@H](CC(=O)O)NC1=O)NC(=O)[C@H](CC(C)(C)C)NC(=O)[C@H](CC(=O)O)NC2=O (stereo partly drawn) [I-812, Ac-PL3-Asp-Npg-B5-Asp-Asp-Ala-Ala-4Thz-Asn-PyrS2-3Thi-BztA-Gln-NH2]
– | – | 2.135 | 10 µM (≈ 19.3 µg/mL) | – | – | 1020 nM | 1020 nM | CC(=O)N1CCC[C@]12CC=CCCCC1(CCCC=CCCCOC(=O)N3CC[C@@](C(=O)N[C@@H](Cc4ccccc4Cl)C(=O)N[C@@H](Cc4csc5ccccc45)C(=O)N[C@H](C(N)=O)[C@@H](C)O)(C3)NC(=O)[C@H](CC(C)C)NC(=O)[C@H](Cc3ccccc3)NC(=O)[C@H](C)NC(=O)[C@H](C)NC(=O)[C@H](CCC(=O)O)NC(=O)[C@H](CC(=O)O)NC1=O)NC(=O)[C@H](CC(C)(C)C)NC(=O)[C@H](CC(=O)O)NC2=O (stereo partly drawn) [I-1070, Ac-PL3-Asp-Npg-B5-Asp-Glu-Ala-Ala-Phe-Leu-PyrS2-2C1F-BztA-Thr-NH2]
23 nM | 23 nM | 2.072 | 42 µM (≈ 77.4 µg/mL) | – | – | – | – | CC(=O)N1CCC[C@]12CC=CCCCC1(CCCC=CCCCCCC[C@@](C)(C(=O)N[C@@H](Cc3ccsc3)C(=O)N[C@@H](Cc3csc4ccccc34)C(=O)N[C@@H](Cc3c[nH]cn3)C(N)=O)NC(=O)[C@H](CC(N)=O)NC(=O)[C@H](Cc3ccccc3)NC(=O)[C@H](C)NC(=O)[C@H](C)NC(=O)[C@H](CCC(=O)O)NC(=O)[C@H](CC(=O)O)NC1=O)NC(=O)[C@H](C)NC(=O)[C@H](CC(=O)O)NC2=O (stereo partly drawn) [I-516, Ac-PL3-Asp-Ala-B5-Asp-Glu-Ala-Ala-Phe-Asn-S8-3Thi-BztA-His-NH2]
– | – | – | – | 1.53 | 42 µM (≈ 89.7 µg/mL) | 13 nM | – | CC(=O)N1CCC[C@]12CC=CCCCC1(CCCC=CCCCOC(=O)N3CC[C@@](C(=O)N[C@@H](Cc4ccsc4)C(=O)N[C@@H](Cc4csc5ccccc45)C(=O)N[C@@H](CCC(N)=O)C(N)=O)(C3)NC(=O)[C@H](CC(N)=O)NC(=O)[C@H](Cc3ccccc3)NC(=O)[C@H](CCCCNC(=O)c3ccc(CN(C)C)cc3)NC(=O)[C@H](C)NC(=O)[C@H](CC(=O)O)NC(=O)[C@H](CC(=O)O)NC1=O)NC(=O)[C@H](CC(C)(C)C)NC(=O)[C@H](CC(=O)O)NC2=O (stereo partly drawn) [I-891, Ac-PL3-Asp-Npg-B5-Asp-Asp-Ala-[Me2NCBz]Lys-Phe-Asn-PyrS2-3Thi-BztA-Gln-NH2]
273 nM | 273 nM | 2.598 | 27 µM (≈ 47 µg/mL) | – | – | – | – | CC(=O)N1CCC[C@]12CC=CCCCC1(CCCC=CCCCCCC[C@@](C)(C(=O)N[C@@H](Cc3ccccc3)C(=O)N[C@@H](Cc3csc4ccccc34)C(N)=O)NC(=O)[C@H](CC(N)=O)NC(=O)[C@H](Cc3ccccc3)NC(=O)[C@H](C)NC(=O)[C@H](C)NC(=O)[C@H](CCC(=O)O)NC(=O)[C@H](CC(=O)O)NC1=O)NC(=O)[C@H](CC(C)C)NC(=O)[C@H](CC(=O)O)NC2=O (stereo partly drawn) [I-624, Ac-PL3-Asp-Leu-B5-Asp-Glu-Ala-Ala-Phe-Asn-S8-Phe-BztA-NH2]
135 nM | 135 nM | 2.617 | 10 µM (≈ 18.7 µg/mL) | – | – | – | – | CC(=O)N1CCC[C@]12CC=CCCCC1(CCCC=CCCCCCC[C@@](C)(C(=O)N[C@@H](Cc3ccccc3)C(=O)N[C@@H](Cc3csc4ccccc34)C(=O)N[C@@H](Cc3c[nH]cn3)C(N)=O)NC(=O)[C@H]([C@@H](C)O)NC(=O)[C@H](Cc3ccccc3)NC(=O)[C@H](C)NC(=O)[C@H](C)NC(=O)[C@H](CCC(=O)O)NC(=O)[C@H](CC(=O)O)NC1=O)NC(=O)[C@H](CC(C)C)NC(=O)[C@H](CC(=O)O)NC2=O (stereo partly drawn) [I-618, Ac-PL3-Asp-Leu-B5-Asp-Glu-Ala-Ala-Phe-Thr-S8-Phe-BztA-His-NH2]
